Laboratory results taken from patent publication US10501516B2, “Peptide compound” (TAKEDA PHARMACEUTICAL COMPANY LIMITED, priority 2016, dated 2019).
Square brackets hold non-standard residues; d marks the D form. Side chains are listed from the residue outwards. Peptide text beside a SMILES is read from it. * marks the point of attachment. C18 diacid = O=C(O)CCCCCCCCCCCCCCCCC(=O)*; NMeY = CN[C@@H](Cc1ccc(O)cc1)C(=O)O; αMeF = C[C@](N)(Cc1ccccc1)C(=O)O; Iva = CC[C@](C)(N)C(=O)O; Aib = CC(C)(N)C(=O)O

Columns and labels:
human GLP-1R = target: T1, human GLP-1R (Homo sapiens, UniProt P43220); assay: Reporter assay of human GLP-1R gene (agonist activity, intracellular cAMP as index); assay type: cell-based; details: Cre-luc reporter, hGLP-1R/Crel cells (CHO-K1), 4 hours
T1 construct: expressed in transfected cells; host or cells: CHO-K1 Cre-luc reporter cells (hGLP-1R/Crel cells)
Description: (§1) Evaluation of Agonist Activity Against Human NPY2R, Human GIPR, and Human GLP-1R Using Change in Intracellular cAMP Concentration as Index
The human GLP-1R gene having a sequence identical to the sequence of GenBank Accession No. NM_002062 was cloned into pIRESneo3 vector (Clontech Laboratories, Inc.) to prepare hGLP-1R/pIRESneo3. This vector was introduced to the Cre-luc reporter cells obtained in (1) to obtain transformants. Next, a cell line induced to express luciferase, i.e., hGLP-1R/Crel cells, were selected from the obtained transformants by the addition of human GLP-1(7-37) peptide.
The hGIPR/CRE-LUC/CHO-K1 cells or the hGLP-1R/Crel cells were inoculated at a cell density of 25 μL/well (5,000 cells/well) to a 384-well white plate (Corning, 3570), and cultured overnight in Ham F12 medium containing 10% fetal bovine serum, 100 U/mL penicillin and 100 μg/mL streptomycin in a CO2 incubator of 37° C. On the next day, a medium containing a test compound was added at a concentration of 5 μL/well to the cells, and the resultant cells were incubated for 4 hours in a CO2 incubator of 37° C. to give the final concentration of 1 μM. SteadyGlo (Promega) was added thereto at a concentration of 30 μL/well, and the mixture was shaken with light shielded. After 30 minutes, the luciferase activity was measured using a plate reader Envision (PerkinElmer). For the GIPR agonist activity, the luciferase activity in the presence of 10 μM GIP was defined as 100%, and the luciferase activity from the addition of DMSO instead of the test compound was defined as 0%. The GIPR agonist activity was calculated with a rise in intracellular cAMP concentration as an index.
For the GLP-1R agonist activity, assay similar to above was conducted using the hGLP-1R/Crel cells. The luciferase activity in the presence of 10 μM GLP-1 was defined as 100%, and the luciferase activity from the addition of DMSO instead of the test compound was defined as 0%. The GLP-1R agonist activity was calculated with a rise in intracellular cAMP concentration as an index.

human GIPR = target: T2, human GIPR (Homo sapiens, UniProt P48546); assay: Reporter assay of human GIPR gene (agonist activity, intracellular cAMP as index); assay type: cell-based; details: Cre-luc reporter, hGIPR/CHO-K1 cells, 4 hours
T2 construct: expressed in transfected cells; host or cells: CHO-K1 Cre-luc reporter cells (hGIPR/CHO-K1, also called hGIPR/CRE-LUC/CHO-K1)
T2 sequence (P48546 22-466): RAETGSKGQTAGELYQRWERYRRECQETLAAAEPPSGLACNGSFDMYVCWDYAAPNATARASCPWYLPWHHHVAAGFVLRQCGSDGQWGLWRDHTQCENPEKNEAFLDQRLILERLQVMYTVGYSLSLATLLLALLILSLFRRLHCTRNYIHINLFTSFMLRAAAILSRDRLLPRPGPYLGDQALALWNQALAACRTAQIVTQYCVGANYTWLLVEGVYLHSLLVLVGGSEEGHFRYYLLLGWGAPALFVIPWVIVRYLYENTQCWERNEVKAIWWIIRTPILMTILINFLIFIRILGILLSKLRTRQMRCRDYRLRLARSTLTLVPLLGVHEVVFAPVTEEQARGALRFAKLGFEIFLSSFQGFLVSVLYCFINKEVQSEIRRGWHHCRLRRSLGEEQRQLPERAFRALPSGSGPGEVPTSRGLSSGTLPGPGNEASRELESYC

human NPY2R = target: T3, human NPY2R (Homo sapiens, UniProt P49146); assay: Reporter assay of human NPY2R gene (agonist activity, decrease in intracellular cAMP as index); assay type: cell-based; details: Cre-luc reporter, hNPY2R CHO-K1 cells, forskolin 1.2 μM, 4 hours; read-out: Agonist activity (EC50) hY2R
T3 construct: expressed in transfected cells; host or cells: CHO-K1 Cre-luc reporter cells (pAKKO1114/hNPY2R#481 No. 88 cells)
T3 sequence (P49146 1-381): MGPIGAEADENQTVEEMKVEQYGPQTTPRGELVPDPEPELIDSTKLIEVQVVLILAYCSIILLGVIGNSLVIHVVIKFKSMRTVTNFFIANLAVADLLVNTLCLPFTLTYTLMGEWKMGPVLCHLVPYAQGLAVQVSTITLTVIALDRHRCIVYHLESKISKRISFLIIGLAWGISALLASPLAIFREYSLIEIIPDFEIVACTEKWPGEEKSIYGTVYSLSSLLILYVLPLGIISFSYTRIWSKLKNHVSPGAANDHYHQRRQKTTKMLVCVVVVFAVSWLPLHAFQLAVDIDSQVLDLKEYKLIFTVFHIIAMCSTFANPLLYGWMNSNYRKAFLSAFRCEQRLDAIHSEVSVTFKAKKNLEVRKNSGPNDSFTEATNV
Description: as §1
The human NPY2R gene having a sequence identical to the sequence of GenBank Accession No. AC104407 was cloned into pAKKO1114 vector to prepare hNPY2R/pAKKO1114. Next, pGL4.29 (Promega) was introduced to CHO-K1 cells, which were then screened with hygromycin to construct Cre-luc reporter cells. These cells were cotransfected with hNPY2R/pAKKO1114 and pcDNA3.1 (Life Technologies Corp.), and the cells were screened with geneticin. Next, a cell line induced to express luciferase, i.e., pAKKO1114/hNPY2R#481 No. 88 cells, were selected from the obtained transformants by the addition of human PYY (3-36).
The pAKKO1114/hNPY2R#481 No. 88 cells were inoculated at a cell density of 25 μL/well (5,000 cells/well) to a 384-well white plate (Corning, 3570), and cultured overnight in Ham F12 medium containing 10% fetal bovine serum, 100 U/mL penicillin and 100 μg/mL streptomycin in a CO2 incubator of 37° C. On the next day, the medium was removed, and an assay medium (Ham F12 medium containing 0.1% BSA, 100 U/mL penicillin and 100 μg/mL streptomycin) containing forskolin (final concentration: 1.2 μM) was added at a concentration of 25 μL/well to the cells. Next, an assay medium containing a test compound was added at a concentration of 5 μL/well to the cells, and the resultant cells were incubated for 4 hours in a CO2 incubator of 37° C. to give the final concentration of 1 μM. SteadyGlo (Promega) was added thereto at a concentration of 30 μL/well, and the mixture was left standing for 20 minutes with light shielded. The luciferase activity was measured using a plate reader Envision (PerkinElmer). The luciferase activity from the addition of DMSO was defined as 100%, and the luciferase activity from the addition of 1 μM human PYY(3-36) instead of the test compound was defined as 0%. The NPY2R agonist activity was calculated with a decrease in intracellular cAMP concentration as an index.

Male C57BL/6J mice = assay: Conditioned taste aversion (CTA) test; assay type: in vivo, mouse; details: 10 nmol/kg s.c.
Procedure: Male C57BL/6J (9 weeks old) mice were habituated to time-restricted bottled water supply (2-3 hours/day) and subcutaneous injection of saline for 1 week. Mice were divided into the groups based on the data of body weight and water intake. CTA test was performed according to the following protocol. On day 1 for the first conditioning, mice were given 0.1% sodium saccharin solution to drink for 3 hours. Ten-minutes after supplying the saccharin solution, vehicles, liraglutides and P41 were administered subcutaneously. […] On day 2, mice were given tap water for 3 hours and subcutaneous injection of saline after water supply. On day 3, the second conditioning was conducted as the same procedure used on day 1. On day 4, mice were given tap water for 3 hours without subcutaneous injection. On day 5, both tap water and saccharin solution were supplied to mice for 3 hours without subcutaneous injection and the intake of each fluid was measured. Saccharin preference ratio (%) was calculated according to the following equation: {(amount of saccharin intake)/(amount of saccharin intake+amount of water intake)}×100.

T1 sequence (P43220 24-463): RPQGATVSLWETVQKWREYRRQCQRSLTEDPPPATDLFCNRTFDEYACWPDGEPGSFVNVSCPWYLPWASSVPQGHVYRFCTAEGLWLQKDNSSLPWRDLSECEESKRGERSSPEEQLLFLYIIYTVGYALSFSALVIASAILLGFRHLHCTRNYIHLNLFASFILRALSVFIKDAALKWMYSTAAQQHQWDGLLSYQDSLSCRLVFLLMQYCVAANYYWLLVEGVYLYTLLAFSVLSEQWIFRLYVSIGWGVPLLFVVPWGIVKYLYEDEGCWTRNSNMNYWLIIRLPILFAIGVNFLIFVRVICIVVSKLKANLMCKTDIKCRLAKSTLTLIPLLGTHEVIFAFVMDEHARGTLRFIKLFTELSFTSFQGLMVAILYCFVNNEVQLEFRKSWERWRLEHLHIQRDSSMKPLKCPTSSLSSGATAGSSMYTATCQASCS

Structure (SMILES) | EC50 (human GLP-1R) | EC50 (human GIPR) | EC50 (human NPY2R) | induction of conditioned taste aversion (emetic effects) (Male C57BL/6J mice)
CC[C@H](C)[C@H](NC(=O)[C@H](CO)NC(=O)[C@H](CCCCNC(=O)CNC(=O)CNC(=O)CNC(=O)CNC(=O)CCCCCCCCCCCCCCCCC(=O)O)NC(=O)[C@H](CC(=O)O)NC(=O)[C@H](CO)NC(=O)[C@@H](NC(=O)[C@](C)(Cc1ccccc1)NC(=O)[C@@H](NC(=O)CNC(=O)[C@H](CCC(=O)O)NC(=O)C(C)(C)NC(=O)[C@H](Cc1ccc(O)cc1)NC)[C@@H](C)O)[C@@H](C)O)C(=O)NC(C)(C)C(=O)N[C@@H](CC(C)C)C(=O)N[C@@H](CCC(=O)O)C(=O)N[C@@H](CCCCN)C(=O)N[C@@H](CCC(N)=O)C(=O)N[C@@H](CCCNC(=N)N)C(=O)N[C@@H](CCC(N)=O)C(=O)N[C@@](C)(CC)C(=O)N[C@@H](CCC(=O)O)C(=O)N[C@@H](Cc1ccccc1)C(=O)N[C@H](C(=O)N[C@@H](CCCNC(=N)N)C(=O)N[C@@H](Cc1c[nH]cn1)C(=O)N[C@@H](CC(C)C)C(=O)N[C@@H](CC(C)C)C(=O)N[C@@H](CC(N)=O)C(=O)N[C@@H](CCCCN)C(=O)NC(C)(C)C(=O)N[C@H](C(=O)N[C@@H](CCCNC(=N)N)C(=O)N[C@@H](CCC(N)=O)C(=O)N[C@@H](CCCNC(=N)N)C(=O)N[C@@H](Cc1ccc(O)cc1)C(N)=O)[C@@H](C)O)C(C)C [Example 42] (H-[NMeY][Aib]EGT[αMeF]TSDK([Gly-Gly-Gly-Gly-C18 diacid])SI[Aib]LEKQRQ[Iva]EFVRHLLNK[Aib]TRQRY-NH2) | 1.3 nM | 0.25 nM | 2.6 nM | –
CCCCCCCCCCCCCCCC(=O)N[C@@H](CCC(=O)NCCCC[C@H](NC(=O)[C@H](C)NC(=O)[C@H](C)NC(=O)[C@H](CCC(N)=O)NC(=O)CNC(=O)[C@H](CCC(=O)O)NC(=O)[C@H](CC(C)C)NC(=O)[C@H](Cc1ccc(O)cc1)NC(=O)[C@H](CO)NC(=O)[C@H](CO)NC(=O)[C@@H](NC(=O)[C@H](CC(=O)O)NC(=O)[C@H](CO)NC(=O)[C@@H](NC(=O)[C@H](Cc1ccccc1)NC(=O)[C@@H](NC(=O)CNC(=O)[C@H](CCC(=O)O)NC(=O)[C@H](C)NC(=O)[C@@H](N)Cc1cnc[nH]1)[C@@H](C)O)[C@@H](C)O)C(C)C)C(=O)N[C@@H](CCC(=O)O)C(=O)N[C@@H](Cc1ccccc1)C(=O)N[C@H](C(=O)N[C@@H](C)C(=O)N[C@@H](Cc1c[nH]c2ccccc12)C(=O)N[C@@H](CC(C)C)C(=O)N[C@H](C(=O)N[C@@H](CCCNC(=N)N)C(=O)NCC(=O)N[C@@H](CCCNC(=N)N)C(=O)NCC(=O)O)C(C)C)[C@@H](C)CC)C(=O)O [Liraglutide, liraglutide, reference compound] | – | – | – | significantly decreased saccharin preference ratio
